Data as given in patent publication US20250368619A1, “SUBSTITUTED TETRAHYDROCYCLOHEPTA[E]INDOLE DERIVATIVES, PROCESSES FOR THEIR PREPARATION AND THERAPEUTIC USES THEREOF” (SANOFI, priority 2022, published 2025).

Molecular target: T1, ERα (Homo sapiens, UniProt P03372)
T1 construct: host or cells: MCF7
T1 sequence (P03372 1-595): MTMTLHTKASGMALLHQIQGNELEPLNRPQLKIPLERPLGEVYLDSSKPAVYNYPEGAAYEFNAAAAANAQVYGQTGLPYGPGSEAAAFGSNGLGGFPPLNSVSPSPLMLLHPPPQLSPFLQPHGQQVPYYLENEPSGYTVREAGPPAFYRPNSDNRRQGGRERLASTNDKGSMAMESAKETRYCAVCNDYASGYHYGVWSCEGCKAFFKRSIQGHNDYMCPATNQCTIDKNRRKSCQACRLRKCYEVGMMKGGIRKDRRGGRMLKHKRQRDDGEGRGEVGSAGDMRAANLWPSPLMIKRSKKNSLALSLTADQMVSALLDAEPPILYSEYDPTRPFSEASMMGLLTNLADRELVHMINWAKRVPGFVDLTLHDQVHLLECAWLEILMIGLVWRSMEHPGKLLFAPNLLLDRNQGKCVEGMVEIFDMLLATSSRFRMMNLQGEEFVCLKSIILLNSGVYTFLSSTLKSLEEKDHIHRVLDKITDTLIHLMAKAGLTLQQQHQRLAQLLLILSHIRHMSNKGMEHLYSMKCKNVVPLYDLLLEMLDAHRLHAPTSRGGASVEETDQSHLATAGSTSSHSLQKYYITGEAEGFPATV
Test: Estrogen receptor degradation activity: breast cancer cell ERα in cell western assay in MCF7 cells
Type: cell-based
Settings: 4 hours, relative to fulvestrant 0.1 μM positive control
Description: Test: Estrogen receptor degradation activity
Said test involves measuring the in vitro degradation activity of the compounds of the table 1.
The measurements of the degradation activities were made using a breast cancer cell ERα in cell western assay as described hereunder.
MCF7 cells (ATCC) were seeded in 384 wells microplate (collagen coated) at a concentration of 10000 cells/30 μL per well in red phenol free MEM alpha medium (invitrogen) containing 5% charcoal dextran striped FBS. The following day, 9 points serial 1:5 dilution of each compound was added to the cells in 2.5 μL at final concentrations ranging from 0.3-0.0000018 μM (in table 2), or 0.1 μM for fulvestrant (using as positive control). At 4 hours post compound addition the cells were fixed by adding 25 μL of formalin (final concentration 5% formalin containing 0.1% triton) for 10 minutes at RT and then washed twice with PBS. Then, 50 μL of LI-COR blocking buffer containing 0.1% Triton was added to plate for 30 minutes at RT. LI-COR blocking buffer was removed and cells were incubated overnight at cold room with 50 μL anti-ER rabbit monoclonal antibody (Thermo scientific MA1-39540) diluted at 1:1000 in LI-COR blocking buffer containing 0.1% tween-20. Wells which were treated with blocking buffer but no antibody were used as background control. Wells were washed twice with PBS (0.1% tween-20) and incubated at 37° C. for 60 minutes in LI-COR (0.1% tween-20) containing goat anti-rabbit antibody Alexa 488 (1:1000) and Syto-64 a DNA dye (2 μM final concentration). Cells were then washed 3 times in PBS and scanned in ACUMEN explorer (TTP-Labtech). Integrated intensities in the green fluorescence and red fluorescence were measured to determine the levels of ERα and DNA respectively.
The degradation activity with respect to estrogen receptors in this test is given by the concentration which degrades 50% of the estrogen receptor (or IC50) in nM.
The % of ERα levels decrease were determined as follows: % inhibition=100*(1−(sample−fulvestrant:DMSO−fulvestrant)).

Compared with `FCCCN1CC(Cc2ccc(C3=C(C4=CCOCC4)CCCc4c3ccc3[nH]ccc43)cc2)C1` [Compound 16, 7-(3,6-dihydro-2H-pyran-4-yl)-6-(4-((1-(3-fluoropropyl)azetidin-3-yl)methyl)phenyl)-3,8,9,10-tetrahydrocyclohepta[e]indole], `FCCCN1CC(Cc2ccc(C3=C(c4ccc(Cl)cc4Cl)CCCc4c3ccc3[nH]ccc43)cc2)C1` [Compound 7, 7-(2,4-dichlorophenyl)-6-(4-((1-(3-fluoropropyl)azetidin-3-yl)methyl)phenyl)-3,8,9,10-tetrahydrocyclohepta[e]indole] is higher in “% Degradation At 0.3 μM” value: 74% for the first, 82% for the second.

Compared with `COc1cccc(C2=C(c3ccc(CC4CN(CCCF)C4)cc3)c3ccc4[nH]ccc4c3CCC2)c1OC` [Compound 9, 7-(2,3-dimethoxyphenyl)-6-(4-((1-(3-fluoropropyl)azetidin-3-yl)methyl)phenyl)-3,8,9,10-tetrahydrocyclohepta[e]indole], `Cc1c(Cl)cccc1C1=C(c2ccc(CC3CN(CCCF)C3)cc2)c2ccc3[nH]ccc3c2CCC1` [Compound 8, 7-(3-chloro-2-methylphenyl)-6-(4-((1-(3-fluoropropyl)azetidin-3-yl)methyl)phenyl)-3,8,9,10-tetrahydrocyclohepta[e]indole] is higher in “% Degradation At 0.3 μM” value: 80% for the first, 83% for the second.

Compared with `OCCCC1=C(c2ccc(CC3CN(CCCF)C3)cc2)c2ccc3[nH]ccc3c2CCC1` [Compound 25, 3-(6-(4-((1-(3-fluoropropyl)azetidin-3-yl)methyl)phenyl)-3,8,9,10-tetrahydrocyclohepta[e]indol-7-yl)propan-1-ol], `OC/C=C/C1=C(c2ccc(CC3CN(CCCF)C3)cc2)c2ccc3[nH]ccc3c2CCC1` [Compound 17, (E)-3-(6-(4-((1-(3-fluoropropyl)azetidin-3-yl)methyl)phenyl)-3,8,9,10-tetrahydrocyclohepta[e]indol-7-yl)prop-2-en-1-ol] is lower in “% Degradation At 0.3 μM” value: 75% for the first, 69% for the second.

Going from `COc1nccc(C2=C(c3ccc(CC4CN(CCCF)C4)cc3)c3ccc4[nH]ccc4c3CCC2)c1F` [Compound 2, 7-(3-fluoro-2-methoxypyridin-4-yl)-6-(4-((1-(3-fluoropropyl)azetidin-3-yl)methyl)phenyl)-3,8,9,10-tetrahydrocyclohepta[e]indole] to `Oc1c(F)ccc(C2=C(c3ccc(CC4CN(CCCF)C4)cc3)c3ccc4[nH]ccc4c3CCC2)c1F` [Compound 6, 2,6-difluoro-3-(6-(4-((1-(3-fluoropropyl)azetidin-3-yl)methyl)phenyl)-3,8,9,10-tetrahydrocyclohepta[e]indol-7-yl)phenol], the “% Degradation At 0.3 μM” value falls from 92% to 90%.

Compared with `FCCCN1CC[C@H](Oc2ccc(C3=C(c4ccc(Cl)cc4Cl)CCCc4c3ccc3[nH]ccc43)cc2)C1` [Compound 4, (S)-7-(2,4-dichlorophenyl)-6-(4-((1-(3-fluoropropyl)pyrrolidin-3-yl)oxy)phenyl)-3,8,9,10-tetrahydrocyclohepta[e]indole], `Cc1c(Cl)cccc1C1=C(c2ccc(OC3CN(CCCF)C3)cc2)c2ccc3[nH]ccc3c2CCC1` [Compound 26, 7-(3-chloro-2-methylphenyl)-6-(4-((1-(3-fluoropropyl)azetidin-3-yl)oxy)phenyl)-3,8,9,10-tetrahydrocyclohepta[e]indole] is higher in “% Degradation At 0.3 μM” value: 85% for the first, 91% for the second.

Compared with `O=C(O)c1cccc(C2=C(c3ccc(CC4CN(CCCF)C4)cc3)c3ccc4[nH]ccc4c3CCC2)c1` [Compound 22, 3-(6-(4-((1-(3-fluoropropyl)azetidin-3-yl)methyl)phenyl)-3,8,9,10-tetrahydrocyclohepta[e]indol-7-yl)benzoic acid], `OCc1cccc(C2=C(c3ccc(CC4CN(CCCF)C4)cc3)c3ccc4[nH]ccc4c3CCC2)c1` [Compound 19, (3-(6-(4-((1-(3-fluoropropyl)azetidin-3-yl)methyl)phenyl)-3,8,9,10-tetrahydrocyclohepta[e]indol-7-yl)phenyl)methanol] is higher in “% Degradation At 0.3 μM” value: 68% for the first, 71% for the second.

Compared with `FCCCN1CC(Cc2ccc(C3=C(c4cccc(C(F)(F)F)c4)CCCc4c3ccc3[nH]ccc43)cc2)C1` [Compound 10, 6-(4-((1-(3-fluoropropyl)azetidin-3-yl)methyl)phenyl)-7-(3-(trifluoromethyl)phenyl)-3,8,9,10-tetrahydrocyclohepta[e]indole], `N#Cc1cccc(C2=C(c3ccc(CC4CN(CCCF)C4)cc3)c3ccc4[nH]ccc4c3CCC2)c1` [Compound 11, 3-(6-(4-((1-(3-fluoropropyl)azetidin-3-yl)methyl)phenyl)-3,8,9,10-tetrahydrocyclohepta[e]indol-7-yl)benzonitrile] is higher in “% Degradation At 0.3 μM” value: 73% for the first, 75% for the second.

Compared with `O=C(O)/C=C/C1=C(c2ccc(CC3CN(CCCF)C3)cc2)c2ccc3[nH]ccc3c2CCC1` [Compound 24, (E)-3-(6-(4-((1-(3-fluoropropyl)azetidin-3-yl)methyl)phenyl)-3,8,9,10-tetrahydrocyclohepta[e]indol-7-yl)acrylic acid], `CC(C)(O)/C=C/C1=C(c2ccc(CC3CN(CCCF)C3)cc2)c2ccc3[nH]ccc3c2CCC1` [Compound 18, (E)-4-(6-(4-((1-(3-fluoropropyl)azetidin-3-yl)methyl)phenyl)-3,8,9,10-tetrahydrocyclohepta[e]indol-7-yl)-2-methylbut-3-en-2-ol] is lower in “% Degradation At 0.3 μM” value: 92% for the first, 77% for the second.

First: OCc1ccc(C2=C(c3ccc(CC4CN(CCCF)C4)cc3)c3ccc4[nH]ccc4c3CCC2)cc1 [Compound 20, (4-(6-(4-((1-(3-fluoropropyl)azetidin-3-yl)methyl)phenyl)-3,8,9,10-tetrahydrocyclohepta[e]indol-7-yl)phenyl)methanol]
Second: N#Cc1ccc(C2=C(c3ccc(CC4CN(CCCF)C4)cc3)c3ccc4[nH]ccc4c3CCC2)cc1 [Compound 13, 4-(6-(4-((1-(3-fluoropropyl)azetidin-3-yl)methyl)phenyl)-3,8,9,10-tetrahydrocyclohepta[e]indol-7-yl)benzonitrile]
The “% Degradation At 0.3 μM” value of the first is higher: 76% for the first, 72% for the second.

First: Cc1cc(F)ccc1C1=C(c2ccc(CC3CN(CCCF)C3)cc2)c2ccc3[nH]ccc3c2CCC1 [Compound 1, 7-(4-fluoro-2-methylphenyl)-6-(4-((1-(3-fluoropropyl)azetidin-3-yl)methyl)phenyl)-3,8,9,10-tetrahydrocyclohepta[e]indole]
Second: N#Cc1ccccc1C1=C(c2ccc(CC3CN(CCCF)C3)cc2)c2ccc3[nH]ccc3c2CCC1 [Compound 12, 2-(6-(4-((1-(3-fluoropropyl)azetidin-3-yl)methyl)phenyl)-3,8,9,10-tetrahydrocyclohepta[e]indol-7-yl)benzonitrile]
The “% Degradation At 0.3 μM” value of the first is lower: 80% for the first, 85% for the second.

`Cc1c(Cl)cccc1C1=C(c2ccc(NC3CN(CCCF)C3)cc2)c2ccc3[nH]ccc3c2CCC1` [Compound 27, N-(4-(7-(3-chloro-2-methylphenyl)-3,8,9,10-tetrahydrocyclohepta[e]indol-6-yl)phenyl)-1-(3-fluoropropyl)azetidin-3-amine] and `Cc1c(Cl)cccc1C1=C(c2ccc(C=C3CN(CCCF)C3)cc2)c2ccc3[nH]ccc3c2CCC1` [Compound 3, 7-(3-chloro-2-methylphenyl)-6-(4-((1-(3-fluoropropyl)azetidin-3-ylidene)methyl)phenyl)-3,8,9,10-tetrahydrocyclohepta[e]indole] are the same in “% Degradation At 0.3 μM” value: 91% for the first, 91% for the second.

First: COc1ccc(C2=C(c3ccc(CC4CN(CCCF)C4)cc3)c3ccc4[nH]ccc4c3CCC2)cn1 [Compound 15, 6-(4-((1-(3-fluoropropyl)azetidin-3-yl)methyl)phenyl)-7-(6-methoxypyridin-3-yl)-3,8,9,10-tetrahydrocyclohepta[e]indole]
Second: OCCc1cccc(C2=C(c3ccc(CC4CN(CCCF)C4)cc3)c3ccc4[nH]ccc4c3CCC2)c1 [Compound 21, 2-(3-(6-(4-((1-(3-fluoropropyl)azetidin-3-yl)methyl)phenyl)-3,8,9,10-tetrahydrocyclohepta[e]indol-7-yl)phenyl)ethan-1-ol]
The “% Degradation At 0.3 μM” value of the first is higher: 91% for the first, 65% for the second.
